Among the data in patent US11242344B2, “(4-hydroxypyrrolidin-2-yl)-heterocyclic compounds and methods of use thereof” (Genentech, Inc., priority 2017, dated 2022) are Kd and IC50 values, retold here.

Assay [1] concerns the target VHL co-expressed with Elongins B and C (Homo sapiens (Human), UniProt P40337). Briefly: Surface Plasmon Resonance Assay. It counts as binding. The note with it: SPR measured VHL affinity; geometric mean where more than one measurement. An outline of the steps: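 Binding kinetics by SPR at 20 °C: compound concentration series run from low to high at 80 μL/min over VHL–Elongin B/C complex, immobilized via avidin tag on SA chip. Buffer was HEPES pH 7.2 with 150 mM NaCl, TCEP, Tween 20, PEG3350 and 2% DMSO; association/dissociation times adjusted per compound.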
Background: In SPR one partner is held on a chip, and binding of the other changes the refractive index at the surface.

For assay [2], the target named is NanoLuc VHL fusion protein (Homo sapiens (Human), UniProt P40337). The experiment in a line: VHL HEK-293 BRET Assay (NanoBRET Target Engagement). The note with it: geometric mean where more than one measurement. It counts as cell-based. The protocol:
The VHL NanoBRET™ Target Engagement Assay analyzes the apparent affinity of test compounds for VHL in cells by competitive displacement of a VHL NanoBRET™ tracer reversibly bound to a NanoLuc® VHL fusion protein stably expressed in the cells. Test compounds were transferred to the assay plate (384 Well White Non-Binding Corning Assay Plates (Corning-3574)) using an Echo 555 Liquid Handler (Labcyte) in 2.5 nL increments and, as appropriate, intermediate stock concentrations of compounds, in order to prepare a titration series. 50 nL of control compound (10 mM; parental unlabeled VHL antagonist; see structure below) and 50 nL of DMSO (negative control) were dispensed into the appropriate control wells. DMSO was backfilled to a final volume of 50 nL as required. 50 nl per well of 1 mM VHL NanoBRET™ Tracer in DMSO (NanoBRET™ Tracer-PEG2-590 (see structure below)) was transferred into each well using an Echo 555 (ultimately yielding a final concentration of 1 uM). HEK 293 RT VHL-NanoLuc® stable cells were cultured in DMEM High Glucose with Pyruvate, 10% fetal bovine serum, 2 mg/mL of Geneticin Selective Antibiotic (50 mg/ml) and 2 mM HEPES (1 M). Cells were seeded in Opti-MEM (Life Technologies-11058-021), 1.7×10^5 cells/mL, 40 μl per well into the assay plate, centrifuged at 500 rpm for 30 seconds and incubated for 2 hours. Max Signal control wells consisted of DMSO only treated wells. Minimum Signal control wells contained of 10 uM parental unlabeled VHL antagonist (control compound—see structure below). 3× Complete Substrate plus Inhibitor Solution was prepared in Opti-MEM (consists of a 1:166 dilution of NanoBRET™ Nano-Glo® Substrate plus a 1:500 dilution of Extracellular NanoLuc® Inhibitor in Opti-MEM), and 20 ul was dispensed into each well of the 384-well plate and centrifuged at 1000 rpm for 1 minute, then incubated for 2 minutes at room temperature. Background Signal control wells were prepared without tracer for background correction steps. Plates were read using a PerkinElmer Envision Reader (model 2104-0020) equipped with Luminescence option (Mirror: BRET2 Enh (PE Barcode 659), Emission Filter: Omega 610LP (Barcode 504), 2nd Emission Filter: Umbelliferone 460 (Barcode 207), Measurement height: 6.5 mm, Measurement time: 1 s). The raw BRET ratio values were calculated by dividing the acceptor emission value (610 nm) by the donor emission value (460 nm) for each sample. To correct for background, the BRET ratio in the absence of tracer (average of no-tracer control samples) was subtracted from the BRET ratio of each sample. Raw BRET units were converted to milliBRET units (mBU) by multiplying each raw BRET value by 1,000. The normalized NanoBRET™ signal was calculated relative to the Max Signal control wells (DMSO treated control wells) and the Minimum Signal control wells. Percentage inhibition was calculated relative to the Minimum Signal control and Maximum Signal control wells. IC50 values were derived by four parameter curve fitting using the Robust method.
In general terms: In BRET a luciferase serves as donor, and the signal depends on an acceptor being close.

Assay [3] has as its target VHL Elongin B/C complex (Homo sapiens (Human), UniProt P40337). Briefly: Fluorescence Polarization (FP) VHL Binding Assay. The conditions noted are these: VHL binding, FP assay; geometric mean where more than one measurement. An outline of the steps:
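Readout is polarization of a TAMRA-coupled VHL ligand (1.67 nM final) displaced from the VHL(E55-D213)/Elongin B/C complex (2.64 nM final) after 1 h incubation at room temperature in pH 8.0 Tris buffer with 1% DMSO. Data normalized to no-VHL and compound-free controls, with compound fluorescence subtracted, and fitted by four-parameter curve for IC50.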
For orientation: In fluorescence polarisation assays a small probe gives low polarisation when free and higher when bound to something large.

VHL Elongin B/C complex, sequence (P40337 whole entry, looked up): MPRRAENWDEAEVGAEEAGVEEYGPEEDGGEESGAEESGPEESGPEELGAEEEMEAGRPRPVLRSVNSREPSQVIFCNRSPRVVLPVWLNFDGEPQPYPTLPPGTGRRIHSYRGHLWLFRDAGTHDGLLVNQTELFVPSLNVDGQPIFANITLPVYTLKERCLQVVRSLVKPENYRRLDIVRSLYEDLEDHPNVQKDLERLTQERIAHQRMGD
VHL Elongin B/C complex, sequence (Q15370 whole entry partner, looked up): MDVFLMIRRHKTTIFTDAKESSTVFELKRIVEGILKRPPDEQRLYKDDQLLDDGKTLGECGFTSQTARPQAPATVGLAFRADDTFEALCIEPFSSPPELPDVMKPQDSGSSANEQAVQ
VHL Elongin B/C complex, sequence (Q15369 whole entry partner, looked up): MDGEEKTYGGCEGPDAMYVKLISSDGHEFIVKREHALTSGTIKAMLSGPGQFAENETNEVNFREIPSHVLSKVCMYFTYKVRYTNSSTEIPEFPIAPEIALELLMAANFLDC
VHL co-expressed with Elongins B and C, sequence (P40337 whole entry, looked up): as the sequence (P40337 whole entry, looked up) above
VHL co-expressed with Elongins B and C, sequence (Q15370 whole entry partner, looked up): as the sequence (Q15370 whole entry partner, looked up) above
VHL co-expressed with Elongins B and C, sequence (Q15369 whole entry partner, looked up): as the sequence (Q15369 whole entry partner, looked up) above
NanoLuc VHL fusion protein, sequence (P40337 whole entry, looked up, the tested form may be a part): as the sequence (P40337 whole entry, looked up) above
NanoLuc VHL fusion protein, sequence (Q15370 whole entry partner, looked up, the tested form may be a part): as the sequence (Q15370 whole entry partner, looked up) above
NanoLuc VHL fusion protein, sequence (Q15369 whole entry partner, looked up, the tested form may be a part): as the sequence (Q15369 whole entry partner, looked up) above

In turn, `Cc1cc([C@H](C(=O)N2C[C@H](O)C[C@H]2C2=NO[C@](C)(c3ccc(Br)cc3)N2)C(C)C)on1` (mixture of isomers) [Example 113.4, (2S)-1-((2S,4R)-2-(5-(4-Bromophenyl)-5-methyl-4,5-dihydro-1,2,4-oxadiazol-3-yl)-4-hydroxypyrrolidin-1-yl)-3-methyl-2-(3-methylisoxazol-5-yl)butan-1-one and (2R)-1-((2S,4R)-2-(5-(4-Bromophenyl)-5-methyl-4,5-dihydro-1,2,4-oxadiazol-3-yl)-4-hydroxypyrrolidin-1-yl)-3-methyl-2-(3-methylisoxazol-5-yl)butan-1-one] showed a dissociation constant Kd in assay [1] of 3.17 µM. Besides, the concentration for half-maximal inhibition (IC50) in assay [2] amounted to 2.92 µM; in assay [3], 2.28 µM.

On to `Cc1ncsc1-c1ccc([C@]2(C)NC(C3C[C@@H](O)CN3C(=O)C(c3cn(C)nn3)C(C)C)=NC2=O)cc1` (single isomer, unassigned) [Example 118.3], for which the dissociation constant (Kd) in assay [1] was 21.2 µM. The IC50 in assay [2] worked out at 100 µM; in assay [3], 150 µM.

Consider `Cc1ncsc1-c1ccc([C@]2(C)NC(C3C[C@@H](O)CN3C(=O)[C@@H]3CCCN3S(C)(=O)=O)=NC2=O)cc1` (single isomer, unassigned) [Example 112.1], for which the Kd in assay [1] came out at 12.1 µM. Moreover, the half-maximal inhibitory concentration (IC50) in assay [2] is 66.4 µM; in assay [3] it was 23.3 µM.

For the molecule `Cc1noc(C(C(=O)N2C[C@H](O)CC2C2=NC(=O)[C@](C)(c3ccc(-c4scnc4C)cc3)N2)C(C)C)n1` (single isomer, unassigned) [Example 117.1], binding in assay [1] was put at a Kd of 155 µM. Moreover, the IC50 was 100 µM in assay [2] and at least 400 µM in assay [3].

Turning to `Cc1cc([C@H](C(=O)N2C[C@H](O)C[C@H]2C2=NO[C@@](c3ccccc3)(C(F)(F)F)N2)C(C)C)on1` (mixture of isomers) [Example 114.1, (2S)-1-((2S,4R)-4-Hydroxy-2-(5-phenyl-5-(trifluoromethyl)-4,5-dihydro-1,2,4-oxadiazol-3-yl)pyrrolidin-1-yl)-3-methyl-2-(3-methylisoxazol-5-yl)butan-1-one and (2R)-1-((2S,4R)-4-Hydroxy-2-(5-phenyl-5-(trifluoromethyl)-4,5-dihydro-1,2,4-oxadiazol-3-yl)pyrrolidin-1-yl)-3-methyl-2-(3-methylisoxazol-5-yl)butan-1-one], the Kd in assay [1] stood at 150 µM. The IC50 in assay [2] is 100 µM; in assay [3], 400 µM.

For `CC/C(=C(\c1ccc(O)cc1)c1ccc(OCCN(C)C(=O)CCCOCCOc2cc(C(C(=O)N3C[C@H](O)CC3C3=NC(=O)[C@](C)(c4ccc(-c5scnc5C)cc4)N3)C(C)C)on2)cc1)c1ccccc1` (single isomer, unassigned) [Example 1003.4], the Kd in assay [1] came out at 67.1 µM. For the same molecule, the IC50 in assay [2] and in assay [3] was at least 100 µM in each case.

As to `Cc1ncsc1-c1ccc([C@]2(C)NC(C3C[C@@H](O)CN3C(=O)[C@@H]3CCCCN3S(C)(=O)=O)=NC2=O)cc1` (single isomer, unassigned) [Example 122.1], the Kd in assay [1] was at least 150 µM. Also, the half-maximal inhibitory concentration (IC50) in assay [2] is 100 µM; in assay [3], at least 400 µM.

In assay [1], `Cc1ncsc1-c1ccc([C@]2(C)NC(C3C[C@@H](O)CN3C(=O)C(c3cc(O)no3)C(C)C)=NC2=O)cc1` (single isomer, unassigned) [Example 116.4] registered a Kd of 5.3 µM. Further, the IC50 in assay [2] was found to be 100 µM; in assay [3], 35.4 µM.

`Cc1ncsc1-c1ccc([C@]2(C)NC(C3C[C@@H](O)CN3C(=O)[C@@H]3CCCCN3S(C)(=O)=O)=NC2=O)cc1` (single isomer, unassigned) [Example 122.2] showed a Kd in assay [1] of 6.83 µM. Further, the results for the IC50 in assay [2] and in assay [3] were 39 µM and 16.7 µM, respectively.

The molecule `Cc1cc(C(C(=O)N2C[C@H](O)C[C@H]2C2=NN(CC(F)(F)F)C(C)(C)N2)C(C)C)on1` (single isomer, unassigned) [Example 134.1] had a dissociation constant Kd in assay [1] of at least 150 µM. For the same molecule, the values for the IC50 in assay [2] and in assay [3] were 100 µM and at least 400 µM, respectively.

In turn, `Cc1noc(C(C(=O)N2C[C@H](O)CC2C2=NC(=O)[C@](C)(c3ccc(-c4scnc4C)cc3)N2)C(C)C)n1` (single isomer, unassigned) [Example 117.3] showed a Kd in assay [1] of 217 µM. The 50% inhibitory concentration (IC50) in assay [2] was 100 µM; in assay [3], at least 400 µM.

Turning to `CCN1N=C([C@@H]2C[C@@H](O)CN2C(=O)C(c2cc(C)no2)C(C)C)NC1(C)C` (single isomer, unassigned) [Example 115.2], the Kd in assay [1] worked out at 4.03 µM. For the same molecule, the IC50 is 25.7 µM in assay [2] and 40.7 µM in assay [3].

Molecule `Cc1ncsc1-c1ccc([C@]2(C)NC(C3C[C@@H](O)CN3C(=O)C(c3cnn(C)c3)C(C)C)=NC2=O)cc1` (single isomer, unassigned) [Example 110.1] came in with a dissociation constant (Kd) in assay [1] of 7.42 µM. Further, the half-maximal inhibitory concentration (IC50) in assay [2] was 28.1 µM; in assay [3] it was 20.6 µM.

`Cc1ncsc1-c1ccc([C@]2(C)NC(C3C[C@@H](O)CN3C(=O)[C@H](C(C)C)N3Cc4ccccc4C3=O)=NC2=O)cc1` (single isomer, unassigned) [Example 123.2] had a dissociation constant (Kd) in assay [1] of 3.98 µM. In addition, the half-maximal inhibitory concentration (IC50) in assay [2] was 5.48 µM; in assay [3] it was 4.68 µM.

As to `Cc1cc([C@H](C(=O)N2C[C@H](O)C[C@H]2C2=NOC(C)(C)N2)C(C)C)on1` [Example 126.1, (R)-1-((2S,4R)-2-(5,5-dimethyl-4,5-dihydro-1,2,4-oxadiazol-3-yl)-4-hydroxypyrrolidin-1-yl)-3-methyl-2-(3-methylisoxazol-5-yl)butan-1-one], the Kd in assay [1] worked out at 12.8 µM. Also, the figures for the IC50 in assay [2] and in assay [3] were 45.4 µM and 31.4 µM, respectively.

As for `CC(=O)N1CCCCC1C(=O)N1C[C@H](O)CC1C1=NC(=O)[C@](C)(c2ccc(-c3scnc3C)cc2)N1` (single isomer, unassigned) [Example 124.4], in assay [1], the Kd was at least 150 µM. Moreover, the IC50 in assay [2] was 100 µM; in assay [3], at least 400 µM.

Turning to `Cc1ncsc1-c1ccc([C@]2(C)NC(C3C[C@@H](O)CN3C(=O)C3N(S(C)(=O)=O)CCC3(C)C)=NC2=O)cc1` (single isomer, unassigned) [Example 125.2], in assay [1], the dissociation constant Kd was at least 150 µM. For the same molecule, the IC50 in assay [2] is 100 µM; in assay [3], at least 400 µM.

`Cc1cc([C@@H](C(=O)N2C[C@H](O)C[C@H]2C2=NOC(c3ccc(Br)cc3)(C(F)(F)F)N2)C(C)C)on1` (single isomer, unassigned) [Example 133.1] showed an equilibrium dissociation constant (Kd) in assay [1] of at least 150 µM. The IC50 is 100 µM in assay [2] and at least 400 µM in assay [3].

Turning to `Cc1cc(C(C(=O)N2C[C@H](O)C[C@H]2C2=NN(c3ccccc3)C(C)(C)N2)C(C)C)on1` (single isomer, unassigned) [Example 135.1], in assay [1], the Kd was at least 150 µM. Further, the results for the IC50 in assay [2] and in assay [3] were 100 µM and at least 400 µM, respectively.

Molecule `CC/C(=C(\c1ccc(O)cc1)c1ccc(OCCN(C)C(=O)CCCOCCOc2cc(C(C(=O)N3C[C@H](O)CC3C3=NC(=O)[C@](C)(c4ccc(-c5scnc5C)cc4)N3)C(C)C)on2)cc1)c1ccccc1` (single isomer, unassigned) [Example 1003.2] had a Kd in assay [1] of 67.1 µM. Besides, the IC50 in assay [2] is at least 100 µM; in assay [3] it was at least 400 µM.

`Cc1ncsc1-c1ccc([C@]2(C)NC(C3C[C@@H](O)CN3C(=O)C(c3cnn(C)c3)C(C)C)=NC2=O)cc1` (single isomer, unassigned) [Example 110.3] came in with an equilibrium dissociation constant (Kd) in assay [1] of 150 µM. The results for the IC50 in assay [2] and in assay [3] were at least 100 µM and at least 400 µM, respectively.

As a reminder, the Kd is the free concentration of one partner at which half of the binding sites on the other are occupied at equilibrium, for simple one-to-one binding. The low end stands for a tighter complex, the high end for a looser complex. The IC50 is the concentration that gives 50% inhibition.
